What was measured:
[1] = refractive index (Na D-line) (dimensionless); conditions: 318.15 K; 101.33 kPa; Liquid; Standard Abbe refractometry
[2] = 318.15 K; 101.33 kPa; Liquid
[3] = excess molar enthalpy (molar enthalpy of mixing); xn = mol fraction of the nth substance listed; conditions: 318.15 K, 101 kPa, Liquid
[4] = xn = mol fraction of the nth substance listed; conditions: 318.15 K, 101 kPa, Liquid

CCCCOC(=O)CC [butyl propanoate]
Conditions	mass density [kg/m3]	refractive index
[1]	–	1.3895
[2]	851.33	–

CCOC(=O)CC [ethyl propanoate]
Conditions	mass density [kg/m3]	refractive index
[1]	–	1.3711
[2]	860.98	–

CCC(=O)OC [methyl propanoate]
Conditions	mass density [kg/m3]	refractive index
[1]	–	1.3641
[2]	884.6	–

CCCCCOC(=O)CC [pentyl propanoate]
Conditions	mass density [kg/m3]
[2]	848.98

CCCCCOC(=O)CC [pentyl propanoate] + CCCCCCCCCCCCCCCCC
Conditions	excess molar enthalpy [kcal/mol]	excess molar volume [m3/mol]
[3], x1 = 0.1196	0.103	–
[3], x1 = 0.2114	0.166	–
[3], x1 = 0.3026	0.217	–
[3], x1 = 0.3904	0.251	–
[3], x1 = 0.469	0.269	–
[3], x1 = 0.5373	0.273	–
[3], x1 = 0.5951	0.267	–
[3], x1 = 0.6196	0.26	–
[3], x1 = 0.6625	0.247	–
[3], x1 = 0.7073	0.228	–
[3], x1 = 0.7545	0.203	–
[3], x1 = 0.8044	0.177	–
[3], x1 = 0.8552	0.143	–
[3], x1 = 0.9052	0.101	–
[3], x1 = 0.9542	0.0541	–
[4], x1 = 0.1083	–	2.44e-07
[4], x1 = 0.2045	–	4.6e-07
[4], x1 = 0.2891	–	6.18e-07
[4], x1 = 0.3649	–	6.95e-07
[4], x1 = 0.4391	–	7.63e-07
[4], x1 = 0.5053	–	8.03e-07
[4], x1 = 0.5658	–	7.98e-07
[4], x1 = 0.6233	–	7.82e-07
[4], x1 = 0.6778	–	7.45e-07
[4], x1 = 0.7277	–	6.88e-07
[4], x1 = 0.7752	–	6.07e-07
[4], x1 = 0.8185	–	5.23e-07
[4], x1 = 0.8587	–	4.3e-07
[4], x1 = 0.8969	–	3.33e-07
[4], x1 = 0.9324	–	2.44e-07
[4], x1 = 0.9677	–	1.14e-07

CCCOC(=O)CC [propyl propanoate]
Conditions	mass density [kg/m3]	refractive index
[1]	–	1.3809
[2]	854.57	–

CCCOC(=O)CC [propyl propanoate] + CCCCCCC
Conditions	excess molar enthalpy [kcal/mol]	excess molar volume [m3/mol]
[3], x1 = 0.0639	0.0623	–
[3], x1 = 0.1325	0.109	–
[3], x1 = 0.2009	0.149	–
[3], x1 = 0.273	0.179	–
[3], x1 = 0.338	0.198	–
[3], x1 = 0.3985	0.208	–
[3], x1 = 0.4549	0.215	–
[3], x1 = 0.5052	0.218	–
[3], x1 = 0.5147	0.218	–
[3], x1 = 0.5577	0.214	–
[3], x1 = 0.6066	0.207	–
[3], x1 = 0.6615	0.194	–
[3], x1 = 0.7197	0.173	–
[3], x1 = 0.7781	0.147	–
[3], x1 = 0.8381	0.115	–
[3], x1 = 0.8975	0.0783	–
[3], x1 = 0.9534	0.0399	–
[4], x1 = 0.0283	–	9e-08
[4], x1 = 0.066	–	2.02e-07
[4], x1 = 0.1305	–	3.13e-07
[4], x1 = 0.1912	–	4.11e-07
[4], x1 = 0.2529	–	4.97e-07
[4], x1 = 0.3157	–	5.6e-07
[4], x1 = 0.3768	–	5.86e-07
[4], x1 = 0.437	–	6.03e-07
[4], x1 = 0.4973	–	6.01e-07
[4], x1 = 0.5557	–	5.81e-07
[4], x1 = 0.6132	–	5.43e-07
[4], x1 = 0.6703	–	4.91e-07
[4], x1 = 0.7248	–	4.24e-07
[4], x1 = 0.7801	–	3.67e-07
[4], x1 = 0.8355	–	2.94e-07
[4], x1 = 0.8887	–	2.07e-07
[4], x1 = 0.9444	–	1.24e-07

CCCOC(=O)CC [propyl propanoate] + CCCCCCCCC
Conditions	excess molar enthalpy [kcal/mol]	excess molar volume [m3/mol]
[3], x1 = 0.0729	0.0736	–
[3], x1 = 0.1505	0.13	–
[3], x1 = 0.2274	0.179	–
[3], x1 = 0.3035	0.216	–
[3], x1 = 0.3733	0.239	–
[3], x1 = 0.4372	0.25	–
[3], x1 = 0.4858	0.252	–
[3], x1 = 0.5248	0.252	–
[3], x1 = 0.5688	0.248	–
[3], x1 = 0.6152	0.239	–
[3], x1 = 0.6667	0.223	–
[3], x1 = 0.7215	0.198	–
[3], x1 = 0.7776	0.169	–
[3], x1 = 0.8356	0.135	–
[3], x1 = 0.8948	0.0929	–
[3], x1 = 0.951	0.0476	–
[4], x1 = 0.0358	–	1.43e-07
[4], x1 = 0.0804	–	2.79e-07
[4], x1 = 0.1547	–	4.77e-07
[4], x1 = 0.2247	–	6.11e-07
[4], x1 = 0.2939	–	7.16e-07
[4], x1 = 0.3601	–	7.97e-07
[4], x1 = 0.4243	–	8.28e-07
[4], x1 = 0.4879	–	8.32e-07
[4], x1 = 0.5463	–	8.3e-07
[4], x1 = 0.6022	–	7.94e-07
[4], x1 = 0.6569	–	7.54e-07
[4], x1 = 0.7113	–	6.79e-07
[4], x1 = 0.7635	–	6.03e-07
[4], x1 = 0.8139	–	4.89e-07
[4], x1 = 0.8623	–	4.1e-07
[4], x1 = 0.9092	–	3.02e-07
[4], x1 = 0.9537	–	1.55e-07

CCCCCCCCCCCCC [tridecane] + CCC(=O)OC
Conditions	excess molar enthalpy [kcal/mol]	excess molar volume [m3/mol]
[3], x2 = 0.1102	0.152	–
[3], x2 = 0.2079	0.264	–
[3], x2 = 0.298	0.349	–
[3], x2 = 0.3751	0.407	–
[3], x2 = 0.4404	0.44	–
[3], x2 = 0.4912	0.457	–
[3], x2 = 0.5388	0.465	–
[3], x2 = 0.5843	0.466	–
[3], x2 = 0.624	0.459	–
[3], x2 = 0.6309	0.456	–
[3], x2 = 0.6687	0.44	–
[3], x2 = 0.7093	0.414	–
[3], x2 = 0.7493	0.382	–
[3], x2 = 0.7925	0.336	–
[3], x2 = 0.8368	0.283	–
[3], x2 = 0.8813	0.224	–
[3], x2 = 0.9269	0.152	–
[3], x2 = 0.9664	0.0759	–
[4], x2 = 0.0687	–	3.33e-07
[4], x2 = 0.1431	–	6.43e-07
[4], x2 = 0.2538	–	1.057e-06
[4], x2 = 0.3537	–	1.323e-06
[4], x2 = 0.4366	–	1.462e-06
[4], x2 = 0.5144	–	1.543e-06
[4], x2 = 0.5811	–	1.548e-06
[4], x2 = 0.6387	–	1.514e-06
[4], x2 = 0.6932	–	1.429e-06
[4], x2 = 0.7403	–	1.32e-06
[4], x2 = 0.7836	–	1.217e-06
[4], x2 = 0.8229	–	1.075e-06
[4], x2 = 0.8583	–	9.26e-07
[4], x2 = 0.8914	–	7.83e-07
[4], x2 = 0.9212	–	6.29e-07
[4], x2 = 0.9596	–	4.05e-07
[4], x2 = 0.9748	–	2.5e-07

From the NIST ThermoML archive (doi:10.1016/j.jct.2004.12.014)
